According to patent US8759500B2, “Crystalline forms of a macrolide, and uses therefor” (Cempra Pharmaceuticals, Inc., priority 2010, dated 2014):

Assays:
[1] = Stability of Form I and Form II under various storage conditions; format: physicochemical
Text: In each case, the test material was first placed in Primary Packaging Material (LLDPE bag within a HMHDPE/LDPE/LDPE blend bag, and then heat sealed). The Primary Packaging Material was placed in Secondary Packaging Material (HDPE drum). All other impurities were less than 1% at each time point.

Dynamic vapor sorption = format: physicochemical
Protocol: The new physical form, Form I of CEM-101 is a crystalline form which may be described by its X-ray powder diffraction pattern. Peaks at approximate positions of about °2θ=8.8, 10.5, 13.2 and 18.6 are representative of this crystalline form. A more detailed analysis of the peaks is described in Tables 1-2 below. […] Water determination by Karl Fisher titration in typical lots is 0.6 to 1.1%. […] Form I of CEM-101 melts at about 200° C. by DSC analysis.
The new physical form, Form II of CEM-101 is a crystalline form which may be described by its X-ray powder diffraction pattern. Peaks at approximate positions of about °2θ=5.6, 7.9, 9.3, 11.7, 12.9 and 16.7 are representative of this crystalline form. A more detailed analysis of the peaks is described in Tables 3-4 below. Based on a single crystal X-ray determination and dynamic vapor sorption analysis, Form II appears to be a non-hygroscopic anhydrous crystalline form that melts at about 225° C. as a single endothermic event by DSC analysis. It is appreciated herein that non-hygroscopic solids, such as Form II described herein, may be advantageous in the preparation of pharmaceutical compositions. Such advantages include improved handling and stability properties in manufacturing, improved lot to lot quality control.

[2] = Further oral pharmacokinetic study in female Balb/c mice, 5, 10 and 20 mg/kg; settings: mouse, plasma; for half-life: t½
[3] = Mean intrinsic dissolution studies; format: physicochemical
Text: Mean intrinsic dissolution rates for exemplary batches of the two forms are shown in Table cC-2 for 3 batches of Form I (SD and % CV for one batch shown) and for Form II.

[4] = Oral pharmacokinetics in Balb/c mice, single dose 20 or 100 mg/kg; settings: for AUCextrap: mean plasma; for AUC(0-inf) / AUC(0-t) / Cmax / Tmax / concentration at 0 h / concentration at 0.25 h / concentration at 0.5 h / concentration at 1 h / concentration at 2 h / concentration at 4 h / concentration at 6 h: Balb/c, mouse, plasma, po
Protocol: The doses were prepared as 2.0 mg/mL or 10.0 mg/mL in a vehicle of 0.5% (w/v) carboxymethyl cellulose in water and a dose volume of 10 mL/kg b.w. Blood samples were collected at various time points during the next 6 h post dose.

[5] = 5 mg/kg, Mean, 5 mg/kg single oral dose
[6] = 5 mg/kg, Median, 5 mg/kg single oral dose
[7] = 10 mg/kg, Mean, 10 mg/kg single oral dose
[8] = 10 mg/kg, Median, 10 mg/kg single oral dose
[9] = 20 mg/kg, Mean, 20 mg/kg single oral dose
[10] = 20 mg/kg, Median, 20 mg/kg single oral dose

Compound: CC[C@H]1OC(=O)[C@@](C)(F)C(=O)[C@H](C)[C@@H](O[C@@H]2O[C@H](C)C[C@H](N(C)C)[C@H]2O)[C@](C)(OC)C[C@@H](C)C(=O)[C@H](C)[C@H]2N(CCCCn3cc(-c4cccc(N)c4)nn3)C(=O)O[C@]12C [Form II, solithromycin]
- Assay (on hydrous basis) ([1]; 2-8° C., 3 Month): 93.4%
- Chromatographic Purity ([1]; 2-8° C., 3 Month): 96.0
- Water ([1]; 2-8° C., 3 Month): 1.24%
- Assay (on hydrous basis) ([1]; 2-8° C., 6 Month): 93.6%
- Chromatographic Purity ([1]; 2-8° C., 6 Month): 96.8
- Water ([1]; 2-8° C., 6 Month): 1.39%
- 3-Ethynylaniline ([1]; 2-8° C., 9 Month): 0.01%
- Assay (on hydrous basis) ([1]; 2-8° C., 9 Month): 93.3%
- Chromatographic Purity ([1]; 2-8° C., 9 Month): 96.4
- Water ([1]; 2-8° C., 9 Month): 1.38%
- 3-Ethynylaniline ([1]; 2-8° C., 12 Month): 0.12%
- Assay (on hydrous basis) ([1]; 2-8° C., 12 Month): 93%
- Chromatographic Purity ([1]; 2-8° C., 12 Month): 96.8
- Water ([1]; 2-8° C., 12 Month): 1.37%
- Assay (on hydrous basis) ([1]; 2-8° C., Initial): 93.9%
- Chromatographic Purity ([1]; 2-8° C., Initial): 97.0
- Water ([1]; 2-8° C., Initial): 1.01%
- Assay (on hydrous basis) ([1]; 25° C./60% RH, 3 Month): 93.6%
- Chromatographic Purity ([1]; 25° C./60% RH, 3 Month): 96.0%
- Water ([1]; 25° C./60% RH, 3 Month): 1.16%
- Assay (on hydrous basis) ([1]; 25° C./60% RH, 6 Month): 93.7%
- Chromatographic Purity ([1]; 25° C./60% RH, 6 Month): 96.7%
- Water ([1]; 25° C./60% RH, 6 Month): 1.42%
- 3-Ethynylaniline ([1]; 25° C./60% RH, 9 Month): 0.04%
- Assay (on hydrous basis) ([1]; 25° C./60% RH, 9 Month): 93.2%
- Chromatographic Purity ([1]; 25° C./60% RH, 9 Month): 96.2%
- Water ([1]; 25° C./60% RH, 9 Month): 1.45%
- 3-Ethynylaniline ([1]; 25° C./60% RH, 12 Month): 0.11%
- Assay (on hydrous basis) ([1]; 25° C./60% RH, 12 Month): 93.0%
- Chromatographic Purity ([1]; 25° C./60% RH, 12 Month): 96.1%
- Water ([1]; 25° C./60% RH, 12 Month): 1.48%
- Assay (on hydrous basis) ([1]; 25° C./60% RH, Initial): 93.9%
- Chromatographic Purity ([1]; 25° C./60% RH, Initial): 97.0%
- Water ([1]; 25° C./60% RH, Initial): 1.01%
- Assay (on hydrous basis) ([1]; 40° C./75% RH, 3 Month): 93.0%
- Chromatographic Purity ([1]; 40° C./75% RH, 3 Month): 95.9%
- Water ([1]; 40° C./75% RH, 3 Month): 1.24%
- Assay (on hydrous basis) ([1]; 40° C./75% RH, 6 Month): 93.1%
- Chromatographic Purity ([1]; 40° C./75% RH, 6 Month): 96.5%
- Water ([1]; 40° C./75% RH, 6 Month): 1.62%
- 3-Ethynylaniline ([1]; 40° C./75% RH, 9 Month): 0.02%
- Assay (on hydrous basis) ([1]; 40° C./75% RH, 9 Month): 92.5%
- Chromatographic Purity ([1]; 40° C./75% RH, 9 Month): 96.2%
- Water ([1]; 40° C./75% RH, 9 Month): 1.51%
- 3-Ethynylaniline ([1]; 40° C./75% RH, 12 Month): 0.05%
- Assay (on hydrous basis) ([1]; 40° C./75% RH, 12 Month): 92.3%
- Chromatographic Purity ([1]; 40° C./75% RH, 12 Month): 97.1%
- Water ([1]; 40° C./75% RH, 12 Month): 1.56%
- Assay (on hydrous basis) ([1]; 40° C./75% RH, Initial): 93.9%
- Chromatographic Purity ([1]; 40° C./75% RH, Initial): 97.0%
- Water ([1]; 40° C./75% RH, Initial): 1.01%
- change in color of the test material ([1]; during the entire study, all storage conditions): no observed change in color
- hygroscopicity (Dynamic vapor sorption): non-hygroscopic
- AUC(0-t) ([2]; 5 mg/kg, AUC 0-24, Mean, 5 mg/kg single oral dose): 4690 ng·h/mL
- AUC(0-t) ([2]; 5 mg/kg, AUC 0-24, Median, 5 mg/kg single oral dose): 4310 ng·h/mL
- Cmax [2, 5]: 1850 ng/mL
- Cmax [2, 6]: 1800 ng/mL
- Tmax [2, 5]: 1.2 h
- Tmax [2, 6]: 1 h
- half-life [2, 5]: 1.17 h
- half-life [2, 6]: 1.12 h
- AUC(0-t) ([2]; 10 mg/kg, AUC 0-24, Mean, 10 mg/kg single oral dose): 7580 ng·h/mL
- AUC(0-t) ([2]; 10 mg/kg, AUC 0-24, Median, 10 mg/kg single oral dose): 7590 ng·h/mL
- Cmax [2, 7]: 2630 ng/mL
- Cmax [2, 8]: 2420 ng/mL
- Tmax [2, 7]: 1.25 h
- Tmax [2, 8]: 1 h
- half-life [2, 7]: 1.42 h
- half-life [2, 8]: 1.53 h
- AUC(0-t) ([2]; 20 mg/kg, AUC 0-24, Mean, 20 mg/kg single oral dose): 20100 ng·h/mL
- AUC(0-t) ([2]; 20 mg/kg, AUC 0-24, Median, 20 mg/kg single oral dose): 21700 ng·h/mL
- Cmax [2, 9]: 5360 ng/mL
- Cmax [2, 10]: 5660 ng/mL
- Tmax [2, 9]: 1.1 h
- Tmax [2, 10]: 1 h
- half-life [2, 9]: 2.46 h
- half-life [2, 10]: 2.46 h
- Mean intrinsic dissolution rate ([3]; 0.1N Hydrochloric Acid): 8.8 mg/min/cm^2
- Mean intrinsic dissolution rate ([3]; Acetate buffer, pH 4.5): 2.7 mg/min/cm^2
- Mean intrinsic dissolution rate ([3]; Phosphate buffer, pH 6.8): 0.01 mg/min/cm^2
- AUCextrap ([4]; Female Balb/c mouse, 20 mg/kg oral, listed as CEM-101 Form II, 20 mg/kg): 12%
- AUCextrap ([4]; Male Balb/c mouse, 20 mg/kg oral, listed as CEM-101 Form II, 20 mg/kg): 42%
- AUCextrap ([4]; Male Balb/c mouse, 100 mg/kg oral): 33%
- AUC(0-inf) ([4]; female, 20 mg/kg): 36000 ng·h/mL
- AUC(0-t) ([4]; female, 20 mg/kg): 31600 ng·h/mL
- Cmax ([4]; female, 20 mg/kg): 8800 ng/mL
- Tmax ([4]; female, 20 mg/kg): 0.5 h
- concentration at 0 h ([4]; female, 20 mg/kg): 0 ng/mL
- concentration at 0.25 h ([4]; female, 20 mg/kg): 6200 ± 1600 ng/mL
- concentration at 0.5 h ([4]; female, 20 mg/kg): 8800 ± 800 ng/mL
- concentration at 1 h ([4]; female, 20 mg/kg): 7300 ± 900 ng/mL
- concentration at 2 h ([4]; female, 20 mg/kg): 6100 ± 1000 ng/mL
- concentration at 4 h ([4]; female, 20 mg/kg): 5500 ± 1700 ng/mL
- concentration at 6 h ([4]; female, 20 mg/kg): 1300 ± 500 ng/mL
- AUC(0-t) ([4]; female, 100 mg/kg): 55000 ng·h/mL
- Cmax ([4]; female, 100 mg/kg): 10500 ng/mL
- Tmax ([4]; female, 100 mg/kg): 4 h
- concentration at 0 h ([4]; female, 100 mg/kg): 0 ng/mL
- concentration at 0.25 h ([4]; female, 100 mg/kg): 7300 ± 900 ng/mL
- concentration at 0.5 h ([4]; female, 100 mg/kg): 10500 ± 1400 ng/mL
- concentration at 1 h ([4]; female, 100 mg/kg): 9600 ± 2200 ng/mL
- concentration at 2 h ([4]; female, 100 mg/kg): 9500 ± 2200 ng/mL
- concentration at 4 h ([4]; female, 100 mg/kg): 10200 ± 1000 ng/mL
- concentration at 6 h ([4]; female, 100 mg/kg): 7800 ± 1100 ng/mL
- AUC(0-inf) ([4]; male, 20 mg/kg): 49000 ng·h/mL
- AUC(0-t) ([4]; male, 20 mg/kg): 29000 ng·h/mL
- Cmax ([4]; male, 20 mg/kg): 6730 ng/mL
- Tmax ([4]; male, 20 mg/kg): 0.5 h
- concentration at 0 h ([4]; male, 20 mg/kg): 0 ng/mL
- concentration at 0.25 h ([4]; male, 20 mg/kg): 4100 ± 800 ng/mL
- concentration at 0.5 h ([4]; male, 20 mg/kg): 6700 ± 600 ng/mL
- concentration at 1 h ([4]; male, 20 mg/kg): 5900 ± 800 ng/mL
- concentration at 2 h ([4]; male, 20 mg/kg): 5600 ± 400 ng/mL
- concentration at 4 h ([4]; male, 20 mg/kg): 4900 ± 1100 ng/mL
- concentration at 6 h ([4]; male, 20 mg/kg): 2900 ± 600 ng/mL
- AUC(0-inf) ([4]; male, 100 mg/kg): 99000 ng·h/mL
- AUC(0-t) ([4]; male, 100 mg/kg): 66000 ng·h/mL
- Cmax ([4]; male, 100 mg/kg): 10600 ng/mL
- Tmax ([4]; male, 100 mg/kg): 4 h
- concentration at 0 h ([4]; male, 100 mg/kg): 0 ng/mL
- concentration at 0.25 h ([4]; male, 100 mg/kg): 6800 ± 700 ng/mL
- concentration at 0.5 h ([4]; male, 100 mg/kg): 6900 ± 1100 ng/mL
- concentration at 1 h ([4]; male, 100 mg/kg): 8700 ± 2700 ng/mL
- concentration at 2 h ([4]; male, 100 mg/kg): 9300 ± 1200 ng/mL
- concentration at 4 h ([4]; male, 100 mg/kg): 10600 ± 1400 ng/mL
- concentration at 6 h ([4]; male, 100 mg/kg): 7200 ± 800 ng/mL
